Reference: article PMC3791928, “Preparation and First Preclinical Evaluation of [^18F]FE@SNAP: A Potential PET Tracer for the Melanin-Concentrating Hormone Receptor-1 (MCHR1)” (Scientia Pharmaceutica, 2013)
Structures can show the parent of a compound that is named as a salt. Where two headings read alike, the source gives them in different places.

Legend:
hMCHR2 = target: T1, hMCHR2 (Homo sapiens, UniProt Q969V1); experiment: preliminary competition binding against [^125I]MCH on hMCHR2
T1 construct: purchased PerkinElmer; host or cells: CHO-K1 cell membranes (recombinant expression)
T1 sequence (Q969V1 whole entry): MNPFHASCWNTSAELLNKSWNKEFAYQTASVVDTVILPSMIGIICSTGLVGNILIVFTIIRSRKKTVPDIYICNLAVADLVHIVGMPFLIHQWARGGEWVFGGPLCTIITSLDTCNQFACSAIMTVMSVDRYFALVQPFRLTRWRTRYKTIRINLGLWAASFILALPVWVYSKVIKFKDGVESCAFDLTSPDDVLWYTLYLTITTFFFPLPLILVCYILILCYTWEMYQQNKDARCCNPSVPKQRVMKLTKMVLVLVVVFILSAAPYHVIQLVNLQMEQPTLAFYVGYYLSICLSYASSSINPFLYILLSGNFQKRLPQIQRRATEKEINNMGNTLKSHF
Source text: [^18F]fluoride was produced via the ^18O(p,n)^18F reaction in a GE PET trace cyclotron (16.5-MeV protons; GE Medical Systems, Uppsala, Sweden). H2^18O (HYOX18; > 98%) was purchased from Rotem Europe (Leipzig, Germany). Typical beam currents were 48–52 μA and irradiation was stopped as soon as the desired activity level was reached (approx. 25–30 GBq). Anion-exchange cartridges (PS-HCO3) for [^18F]fluoride trapping were obtained from Macherey-Nagel (Dueren, Germany). The precursor compound (Tos@SNAP; 4, Fig. 1) and the reference standard (FE@SNAP) were synthesized in cooperation with the Department of Drug and Natural Product Synthesis of the University of Vienna (Austria). Solid phase extraction (SPE) cartridges SepPak® C18-plus and the Oasis HLB 6cc Vac (200 mg) were purchased from Waters (Waters® Associates, Milford, MA, USA). Sterile water Ecotainer® and 0.9% saline solution were purchased from B. Braun (Melsungen, Germany). 3% saline solution was obtained from a local pharmacy (Landesapotheke Salzburg, Austria). A 125 mM phosphate buffer was prepared by dissolving 0.224g sodium dihydrogen phosphate-monohydrate and 1.935g disodium hydrogen phosphate-dihydrate (both from Merck, Darmstadt, Germany) in 100 mL of sterile water. Phosphate-buffered saline (PBS) concentrate (10:1) was obtained from Morphisto (Frankfurt, Germany). […]

[1] = plasma stability in rat plasma; format: in vitro ADME; conditions: for degradation in rat plasma (in words): after 120 min
Procedure: (§1) The stability of [^18F]FE@SNAP in human and rat plasma was determined according to Nics et al.. 1800 μL of lithium-heparinized plasma (rat and human, respectively) were pre-incubated under physiological conditions (PBS, pH 7.4, 37°C) in a shaking incubator for 5 minutes. 36 μL [^18F]FE@SNAP (corresponding to 2% ethanol v/v in the total volume) were added and the plasma vial was vortexed for at least 10 seconds. After defined points in time (0 and 120 min), 500 μL of the incubation-mixture were added to a preconditioned (with 5 mL methanol followed by 5 mL water) SPE-cartridge (Oasis). The cartridge was then eluted into a collection tube, washed with 5 mL of 5% methanol in water (v/v) into a second tube, and eluted with 3 mL of THF into a third tube. 20 μL of the eluate-solution of tube two and three were injected into the analytical HPLC (mobile phase: (water/acetic acid 97.5/2.5 v/v; 2.5 g/L ammonium acetate; pH 3.5)/acetonitrile 70/30 v/v; flow: 2mL/min).

[2] = plasma free fraction (centrifugal filter units); format: in vitro ADME; conditions: human plasma, n=3
Procedure: The method used was modified from Parsey et al.. 1 mL of heparinized plasma (rat and human, respectively) were mixed with 10–50 μL [^18F]FE@SNAP. 200 μL aliquots were pipetted into the centrifugal filter units and the total radioactivity was measured in a Gamma Counter. After the centrifugation step (2.000 × g, 50 min), 50 μL of the obtained filtrate was back-measured for radioactivity. For the determination of the plasma free fraction (f1), the ratio of filtrate to total activity concentration was calculated.

porcine carboxylesterase = experiment: stability against carboxylesterase (Michaelis-Menten kinetics); format: in vitro ADME; conditions: porcine carboxylesterase 80 I.U., PBS pH 7.4, 37°C
Procedure: The method used was slightly modified from Nics et al.. Incubations of different amounts (10, 30, 50, 70, 100, 200 μg/ml) of FE@SNAP were accomplished with a constant quantity of 80 International Units (I.U.) of porcine carboxylesterase under physiological conditions (PBS, pH 7.4, 37°C). The use of selected concentrations of FE@SNAP was based on an optimal choice to create Michaelis-Menten kinetics (MMK). 35 μl of the incubation-mixture were stopped after defined points in time (0, 60, 120, 180, and 240 min) by adding the same amount of ice-cold acetonitrile/methanol (10:1) and then vortexed. After centrifugation of the reaction mixtures (23.000 × g, 5 min), 20 μL of the obtained supernatant were analyzed by analytical HPLC (for conditions see Plasma Stability). The MMK of FE@SNAP was calculated by using GraphPad Prism software Version 5.0 (La Jolla, CA, USA).

HPLC-based logD analysis = format: physicochemical; conditions: ODP-50 column, phosphate buffer pH 7.4, n=3
Procedure: LogD values were determined using an HPLC-based assay according to Donovan and Pescatore. A cocktail of two internal standards (toluene and triphenylene) with known logD and k′ values and FE@SNAP in methanol were injected into a short polymeric ODP-50 column. A linear gradient from 10% methanol/90% phosphate buffer (pH 7.4) to 100% methanol within 9.4 min at a flow rate of 1.5 mL/min was applied. Detection was performed at 260 nm and 285 nm.

human MCHR1 (hMCHR1) = target: human MCHR1 (hMCHR1); parameters: method as in PMID 12118247; conditions: Cos-7 cells expressing the human MCHR1; cited from earlier work
[3] = parameters: method as in PMID 23829932; conditions: evaluated previously; cited from earlier work
hMCHR1 = target: T2, hMCHR1 (Homo sapiens, UniProt Q99705); experiment: saturation binding of [^18F]FE@SNAP on CHO-K1 cell membranes expressing hMCHR1; conditions: CHO-K1 membranes expressing hMCHR1, room temperature, 120 min, n=2
T2 construct: purchased PerkinElmer; host or cells: CHO-K1 cell membranes (recombinant expression)
T2 sequence (Q99705 whole entry): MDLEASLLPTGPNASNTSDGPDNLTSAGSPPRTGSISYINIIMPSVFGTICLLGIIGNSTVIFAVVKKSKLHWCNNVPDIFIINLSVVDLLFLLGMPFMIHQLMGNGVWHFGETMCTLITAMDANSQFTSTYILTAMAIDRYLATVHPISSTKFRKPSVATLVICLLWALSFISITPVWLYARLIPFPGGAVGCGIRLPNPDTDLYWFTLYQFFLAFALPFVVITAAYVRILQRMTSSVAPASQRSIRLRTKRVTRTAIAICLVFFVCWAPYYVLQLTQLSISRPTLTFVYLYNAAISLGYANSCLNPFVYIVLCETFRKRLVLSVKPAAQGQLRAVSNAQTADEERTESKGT
Procedure: The method used was conducted according to Mashiko et al. with minor modifications. CHO-K1 cell membranes expressing hMCHR1 (10 μg/mL) were dissolved in 500 μL and a 50 mM Tris buffer (pH 7.4) (containing 10 mM MgCl2, 2 mM EDTA, 0.1% bacitracin and 0.2% BSA). For the evaluation of the equilibrium dissociation constant (Kd) of [^18F]FE@SNAP, several concentrations (0–500 nM) of [^18F]FE@SNAP were added. The membranes were incubated in vials at room temperature for 120 min. Bound and free fractions of the radioligand were separated by centrifugation at 40.000 × g for 20 min. The supernatants were removed into new vials. The pellets were washed with 800 μL of the ice cold Tris buffer, which was added to the supernatant, and the pellets were dissolved in 1300 μL of the Tris buffer. The radioactivity in the vials was measured by a Gamma Counter. The Kd values were calculated by using GraphPad Prism software Version 5.0 (La Jolla, CA, USA).

[4] = plasma stability in human plasma; format: in vitro ADME; conditions: 37°C, pH 7.4, n=6
Procedure: as §1

[5] = tested on: CYP450, human liver microsomes; experiment: stability against liver microsomes (CYP450), human; format: in vitro ADME; conditions: after 60 min, n=4
Procedure: (§2) The method used was described by Nics et al.. Briefly, liver microsomes (pooled from human or rat origin) were pre-incubated under physiological conditions (PBS, pH 7.4, 37°C) with a NADPH-generating system (solution-A: NADP+, glucose-6-phosphate and magnesium-chloride in H2O and solution-B: glucose-6-phosphate dehydrogenase in sodium citrate) for 5 min. 6 μL of [^18F]FE@SNAP, which correspond to 2% ethanol (v/v) in the total volume, were added. Enzymatic reactions were stopped after defined points in time (0, 2, 5, 10, 20, 40, and 60 min) by adding the same amount of ice-cold acetonitrile/methanol (10:1). The mixtures were vortexed, followed by a centrifugation step (23.000 × g, 5 min). Aliquots of the obtained supernatant were analyzed by an analytical HPLC (for conditions see Plasma Stability).

[6] = tested on: CYP450, rat liver microsomes; experiment: stability against liver microsomes (CYP450), rat; format: in vitro ADME; conditions: after 60 min, n=4
Procedure: as §2

[7] = parameters: method as in PMID 10908045; conditions: cited from earlier work

COCC1=C(C(=O)OCCF)C(c2ccc(F)c(F)c2)N(C(=O)NCCCN2CCC(c3cccc(NC(C)=O)c3)CC2)C(=O)N1 (stereo not drawn) [FE@SNAP]
Ki (hMCHR2): > 1000 nM
degradation in rat plasma (in words) [1]: complete
plasma free fraction (f1) [2]: 12.6 ± 0.2%
limiting velocity (Vmax) (porcine carboxylesterase): 0.874 µM/min
Km (porcine carboxylesterase; read-out: Michaelis-Menten constant (Km)): 347 µM
logD (HPLC-based logD analysis): 3.83 ± 0.1

COCC1=C(C(=O)OC)[C@H](c2ccc(F)c(F)c2)N(C(=O)NCCCN2CCC(c3cccc(NC(C)=O)c3)CC2)C(=O)N1 [SNAP-7941, (+)-methyl (4S)-3-{[(3-{4-[3-(acetylamino)phenyl]-1-piperidinyl}propyl)amino]carbonyl}-4-(3,4-difluorophenyl)-6-(methoxymethyl)-2-oxo-1,2,3,4-tetrahydro-5-pyrimidinecarboxylate hydrochloride]
Kd (human MCHR1 (hMCHR1)): 0.18 nM

COCC1=C(C(=O)O[11CH3])[C@H](c2ccc(F)c(F)c2)N(C(=O)NCCCN2CCC(c3cccc(NC(C)=O)c3)CC2)C(=O)N1 [[^11C]SNAP-7941]
degradation in rat plasma (in words) [3]: rapid enzymatic degradation

COCC1=C(C(=O)OCC[18F])[C@H](c2ccc(F)c(F)c2)N(C(=O)NCCCN2CCC(c3cccc(NC(C)=O)c3)CC2)C(=O)N1 [[^18F]FE@SNAP]
Kd (hMCHR1): 2.9 nM
degradation in human plasma ([4]; after 0 min): 0.48 ± 0.5%
degradation in human plasma ([4]; after 120 min): 3.87 ± 3.9%
degradation in rat plasma (in words) [1]: completely metabolized
degradation in rat plasma ([1]; initially (0 min), 37°C, pH 7.4, n=11): 32.44 ± 33.5%
fraction unbound ([2]; heparinized plasma, read-out: plasma free fraction (f1)): 0.126 ± 0.002
enzymatic degradation by CYP450 [5]: 5.39 ± 1.6%
enzymatic degradation by CYP450 [6]: 2.59 ± 1.8%
chromatographic logD (HPLC-based logD analysis; polymeric ODP-50 HPLC column): 3.83

COc1ccccc1N1CCN(CCN(c2ccccn2)[11C](=O)C2CCCCC2)CC1 [[carbonyl-^11C]WAY-100635]
plasma free fraction [7]: 5.8 ± 0.2%
